Values of other authors in paper PMC8747035, “Design, Synthesis, and Biological Evaluation of 5,6,7,8-Tetrahydrobenzo[4,5]thieno[2,3-d]pyrimidines as Microtubule Targeting Agents” (Molecules, 2022).

How the values were obtained:
[1] = system: tubulin; settings: compound at 5 μM; cited from earlier work
[2] = system: MDA-MB-435 cells; settings: SRB assay, antiproliferative; read-out: IC50 ± SD in MDA-435 Cells; cited from earlier work
[3] = system: HeLa cells; settings: read-out: IC50 ± SD in HeLa; cited from earlier work
[4] = system: SK-OV-3 cells; settings: read-out: IC50 ± SD in SK-OV-3 Cells; cited from earlier work
[5] = system: HeLa WTβIII cells; settings: read-out: IC50 ± SD in HeLa WTβ3; cited from earlier work
[6] = system: A-10 cells; settings: read-out: EC50 for Microtubule Depolymerization in A-10 Cells; cited from earlier work
[7] = system: Bovine brain tubulin; settings: read-out: Inhibition of Tubulin Assembly IC50 ± SD; cited from earlier work
[8] = system: SK-OV-3 MDR1-M6/6 cells; settings: read-out: IC50 ± SD in SK-OV-3 MDR1-M6/6 Cells; cited from earlier work

In the case of `COc1ccc(N(C)c2nc(N)nc3[nH]c4ccccc4c23)cc1` [Compound 1], the “Inhibition of Colchicine Binding (% inhibition ± SD)” value (“Inhibition … (% inhibition ± SD)” for short) [1] is listed as 84 ± 0.50%, the IC50 [2] is listed as 14.7 ± 1.5 nM and the IC50 [3] is listed as 21.3 ± 2.2 nM. For the same compound, the IC50 [4] was 27.6 ± 1.8 nM, the IC50 [5] was 21.4 ± 3.5 nM and the EC50 [6] was 130 nM. For the same compound, the IC50 [7] was 1400 ± 7 nM.
In the case of `CSc1ccc(N(C)c2nc(N)nc3[nH]c4ccccc4c23)cc1` [Compound 2], the IC50 [8] is listed as 160 ± 15 nM, the “Inhibition … (% inhibition ± SD)” value [1] is listed as 67.0 ± 5.0% and the IC50 [2] is listed as 89.1 ± 10 nM. For the same compound, the IC50 [3] was 118 ± 13 nM, the IC50 [4] was 156 ± 16 nM and the IC50 [5] was 78.4 ± 4 nM. The EC50 [6] was 1100 nM and the IC50 [7] was 2300 ± 300 nM.
For `COc1ccc(N(C)c2ncnc3[nH]c4ccccc4c23)cc1` [Compound 3], the IC50 [8] is listed as 224 ± 21 nM, the “Inhibition … (% inhibition ± SD)” value [1] is listed as 62.0 ± 4.0% and the IC50 [2] is listed as 130 ± 7.8 nM. For the same compound, the IC50 [3] was 142 ± 8.1 nM, the IC50 [4] was 173 ± 8.6 nM and the IC50 [5] was 99.5 ± 12 nM. The EC50 [6] was 1200 nM and the IC50 [7] was 2300 ± 400 nM.
